ChEMBL document CHEMBL5532648, “Development of a specific and potent IGF2BP1 inhibitor: A promising therapeutic agent for IGF2BP1-expressing cancers” (Eur J Med Chem, 2024)
Activity calls are given as the source filed them. The rule behind the calls is not given here.

Assays:
[1] = target: T1, Insulin-like growth factor 2 mRNA-binding protein 1 (Homo sapiens, UniProt Q9NZI8); experiment: Inhibition of human IGF2BP1 transfected in RKO cells incubated for 24 hrs by split-luciferase assay; assay type: cell-based
NCI-H1299 [2] = experiment: Inhibition of wound healing in human NCI-H1299 cells at 1.25 to 5 uM by IncuCyte live-cell imaging analysis; assay type: functional, cell-based; details: dose 1.25-5 µM
NCI-H1299 [3] = experiment: Inhibition of wound healing in human NCI-H1299 cells by IncuCyte live-cell imaging analysis; assay type: functional, cell-based
RKO = experiment: Induction of apoptosis in human RKO cells; assay type: functional, cell-based
SW480 [4] = experiment: Induction of apoptosis in human SW480 cells; assay type: functional, cell-based; details: dose 2-4 µM
LKR-M cell [5] = experiment: Antiproliferative activity against mouse LKR-M cells transfected with GFP-IGF2BP1 at 1.25 uM; assay type: functional, cell-based
LKR-M cell [6] = experiment: Inhibition of wound healing in mouse LKR-M cells transfected with GFP at 5 uM by IncuCyte live-cell imaging analysis; assay type: functional, cell-based
NCI-H1299 [7] = experiment: Antiproliferative activity against human NCI-H1299 cells; assay type: functional, cell-based
LKR-M cell [8] = experiment: Antiproliferative activity against mouse LKR-M cells transfected with GFP-IGF2BP1; assay type: functional, cell-based
NCI-H1299 [9] = experiment: Antiproliferative activity against human NCI-H1299 cells at 1.25 to 5 uM; assay type: functional, cell-based; details: dose 1.25-5 µM
HCT-116 [10] = experiment: Antiproliferative activity against human HCT-116 cells; assay type: functional, cell-based
[11] = target: T1, Insulin-like growth factor 2 mRNA-binding protein 1; experiment: Binding affinity to recombinant full-length human IGF2BP1 KH34 domain by MST assay
SW480 [12] = experiment: Inhibition of cell migration in human SW480 cells at 2 uM; assay type: functional, cell-based
LKR-M cell [13] = experiment: Inhibition of wound healing in mouse LKR-M cells transfected with IGF2BP1 at 5 uM by IncuCyte live-cell imaging analysis; assay type: functional, cell-based
SW480 [14] = experiment: Inhibition of cell migration in IGF2BP1 knockout human SW480 cells at 2 uM; assay type: functional, cell-based
HCT-116 [15] = experiment: Induction of apoptosis in human HCT-116 cells; assay type: functional, cell-based; details: dose 2-4 µM
LKR-M cell [16] = experiment: Antiproliferative activity against mouse LKR-M cells transfected with GFP; assay type: functional, cell-based

T1 sequence (Q9NZI8 whole entry): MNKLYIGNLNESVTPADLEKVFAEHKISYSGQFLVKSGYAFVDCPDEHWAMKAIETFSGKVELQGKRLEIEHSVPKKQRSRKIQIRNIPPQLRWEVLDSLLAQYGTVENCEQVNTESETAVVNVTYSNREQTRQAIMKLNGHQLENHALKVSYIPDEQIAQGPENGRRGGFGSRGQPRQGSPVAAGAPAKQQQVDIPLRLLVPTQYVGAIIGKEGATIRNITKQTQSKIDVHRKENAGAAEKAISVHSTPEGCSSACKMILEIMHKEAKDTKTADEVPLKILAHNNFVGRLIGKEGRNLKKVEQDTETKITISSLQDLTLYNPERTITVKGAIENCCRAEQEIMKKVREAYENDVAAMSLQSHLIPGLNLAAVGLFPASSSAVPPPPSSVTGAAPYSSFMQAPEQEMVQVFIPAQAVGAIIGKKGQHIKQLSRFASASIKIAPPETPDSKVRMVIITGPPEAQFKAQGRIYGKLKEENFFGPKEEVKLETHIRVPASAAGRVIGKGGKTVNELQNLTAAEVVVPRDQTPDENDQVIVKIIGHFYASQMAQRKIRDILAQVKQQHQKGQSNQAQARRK

Row | SMILES | inhibition [1] | IC50 (NCI-H1299 [3]) | also measured
1 | O=C(c1ccc(CN2CCOCC2)cc1)N1CCCC(Nc2ccc3c(c2)OCO3)C1 (centres undefined) | Active | – | –
2 | Cc1ccc(N2CCN(C(=O)c3ccc(Cn4cc(CO)c5ccccc54)cc3)CC2)cc1 | Active | 2.5 µM | inhibition (NCI-H1299 [2]): Active
3 | Cc1ccc(N2CCN(C(=O)c3ccc(Cn4cnnn4)cc3)CC2)cc1 | inactive | – | –
4 | O=C(c1ccc(Cn2cncn2)cc1)N1CCCC(Nc2ccc3c(c2)OCO3)C1 (centres undefined) | Active | – | –
5 | O=C(c1ccc(Cn2cncn2)cc1)N1CCN(c2ccc3c(c2)OCO3)CC1 | inactive | – | –
6 | O=C(c1ccc(Cn2ccnc2)cc1)N1CCCC(Nc2ccc3c(c2)OCO3)C1 (centres undefined) | Active | – | –
7 | O=C(c1ccc(Cn2ccnc2)cc1)N1CCN(c2ccc3c(c2)OCO3)CC1 | inactive | – | –
8 | O=C(c1ccc(Cn2cnc([N+](=O)[O-])n2)cc1)N1CCN(c2ccc3c(c2)OCO3)CC1 | inactive | – | –
9 | Cc1ccc(N2CCN(C(=O)c3ccc(CNC(N)=S)cc3)CC2)cc1 | inactive | – | –
10 | NC(=S)NCc1ccc(C(=O)N2CCN(c3ccc4c(c3)OCO4)CC2)cc1 | Active | 4.5 µM | inhibition (NCI-H1299 [2]): Active
11 | O=C(c1ccc(Cn2cnnn2)cc1)N1CCN(c2ccc3c(c2)OCO3)CC1 | inactive | – | –
12 | Cc1ccc(N2CCN(C(=O)c3ccc(CN4CCCC4)cc3)CC2)cc1 | inactive | – | –
13 | NC(=S)NCc1ccc(C(=O)N2CCCC(Nc3ccc4c(c3)OCO4)C2)cc1 (centres undefined) | Active | 30 µM | –
14 | Cc1ccc(N2CCN(C(=O)c3ccc(C[Se]C#N)cc3)CC2)cc1 | inactive | – | –
15 | O=C(c1ccc(Cn2cnnn2)cc1)N1CCCC(Nc2ccc3c(c2)OCO3)C1 (centres undefined) | Active | 10 µM | –
16 | Cc1ccc(N2CCN(C(=O)c3ccc(CN4CCOCC4)cc3)CC2)cc1 | inactive | – | –
17 | N#C[Se]Cc1ccc(C(=O)N2CCN(c3ccc4c(c3)OCO4)CC2)cc1 | inactive | – | –
18 | O=C(c1ccc(CN2CCCC2)cc1)N1CCCC(Nc2ccc3c(c2)OCO3)C1 (centres undefined) | Active | – | –
19 | Cc1ccc(N2CCN(C(=O)c3ccc(Cn4ccnc4)cc3)CC2)cc1 | inactive | – | –
20 | O=C(c1ccc(CN2CCOCC2)cc1)N1CCN(c2ccc3c(c2)OCO3)CC1 | Active | > 100 µM | –
21 | O=C(c1ccc(Cn2cnc([N+](=O)[O-])n2)cc1)N1CCCC(Nc2ccc3c(c2)OCO3)C1 (centres undefined) | Active | 20 µM | –
22 | N#C[Se]Cc1ccc(C(=O)N2CCCC(Nc3ccc4c(c3)OCO4)C2)cc1 (centres undefined) | Active | 10 µM | inhibition (NCI-H1299 [2]): Active
23 | Cc1ccc(N2CCN(C(=O)c3ccc(Cn4cnc([N+](=O)[O-])n4)cc3)CC2)cc1 | Active | 8 µM | inhibition (NCI-H1299 [2]): Active
24 | O=C(c1ccc(Cn2cc(CO)c3ccccc32)cc1)N1CCN(c2ccc3c(c2)OCO3)CC1 | – | 0.7 µM | Activity (RKO): inactive; Activity (SW480 [4]): Dose-Dependent Effect; Activity (LKR-M cell [5]): Active; inhibition (LKR-M cell [6]): inactive; Activity (NCI-H1299 [7]): Dose-Dependent Effect; Activity (LKR-M cell [8]): Dose-Dependent Effect; Activity (NCI-H1299 [9]): Active; Activity (HCT-116 [10]): Dose-Dependent Effect; inhibition (NCI-H1299 [2]): Active; Kd [11]: 840 nM; inhibition (SW480 [12]): Active; inhibition (LKR-M cell [13]): Active; inhibition (SW480 [14]): inactive; Activity (HCT-116 [15]): Dose-Dependent Effect; Activity (LKR-M cell [16]): inactive
25 | O=C(c1ccc(CN2CCCC2)cc1)N1CCN(c2ccc3c(c2)OCO3)CC1 | Active | > 100 µM | –
26 | Cc1ccc(N2CCN(C(=O)c3ccc(Cn4cncn4)cc3)CC2)cc1 | inactive | – | –
